Test systems include K-562 leukemia; HOP-92 NSCLC; NCI-H226 lung; HOP-62 NSCLC; SF-295 CNS; SW-620 colon; LOX IMVI melanoma; SK-OV-3 ovarian; RXF 393 renal; U251 CNS.
Test in all cases: NCI tumour cell line growth inhibition, 48 h

Several values for one entry are separate records, joined by “and”; a condition that tells them apart may be missing. Identical values can stand only once.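 Following 48 hours of exposure in 96-well plates, responses at five concentrations were used to interpolate endpoints linearly. The concentration for 50% growth inhibition is given as GI50. TGI: total growth inhibition.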

These results are taken from PubChem BioAssay (NCI).

As for `C1CCN(C2OC3C(COC3N3CCCCC3)OC2OC2CCO[C@@H]2N2CCCCC2)CC1` (some centres not stated), the TGI in the assay with K-562 leukemia is over 100 µM; with HOP-92 NSCLC, 47.5 µM; in the assay with NCI-H226 lung, 54.1 µM; with HOP-62 NSCLC, over 100 µM; with SF-295 CNS it was over 100 µM; in the assay with SW-620 colon, over 100 µM. The TGI with LOX IMVI melanoma was over 100 µM; with SK-OV-3 ovarian it was over 100 µM; in the assay on RXF 393 renal it was 27.5 µM; in the assay with U251 CNS, over 100 µM.

Regarding `CC/C(=C(/CC)c1ccc(O)cc1)c1ccc([O-])cc1.CC/C(=C(/CC)c1ccc(O)cc1)c1ccc([O-])cc1.O=C([CH-]C(=O)c1ccccc1)c1ccccc1.O=C([CH-]C(=O)c1ccccc1)c1ccccc1.[Ti+4]`, the GI50 in the assay with K-562 leukemia was 3.51 µM; with HOP-92 NSCLC, 14.2 µM; with NCI-H226 lung it was 23.6 µM; in the assay with HOP-62 NSCLC it was 14.7 µM; in the assay with SF-295 CNS, 17.9 µM; in the assay on SW-620 colon it was 6.35 µM. Further, the GI50 in the assay with LOX IMVI melanoma was 12.5 µM; with SK-OV-3 ovarian, 19.8 µM; in the assay on RXF 393 renal, 10.7 µM; in the assay on U251 CNS, 13.9 µM. Further, the TGI was over 100 µM in the assay on K-562 leukemia; 27.2 µM in the assay with HOP-92 NSCLC; 45.5 µM with NCI-H226 lung; 28.3 µM in the assay with HOP-62 NSCLC; 35 µM in the assay with SF-295 CNS; 19.1 µM in the assay on SW-620 colon. The TGI came to 27.5 µM with LOX IMVI melanoma, 52.2 µM in the assay on SK-OV-3 ovarian, 25.7 µM with RXF 393 renal and 26.9 µM in the assay with U251 CNS.

As to `COc1cc2c(Oc3ccc4[nH]c(C)cc4c3F)ccnc2cc1OCC1(N)CC1`, the GI50 with K-562 leukemia was 0.416 µM; in the assay on HOP-92 NSCLC, 1.03 µM; with NCI-H226 lung, 0.894 µM; with HOP-62 NSCLC it was 1.59 µM; in the assay on SF-295 CNS, 1.07 µM; in the assay with SW-620 colon, 0.757 µM. Besides, the GI50 is 1.26 µM with LOX IMVI melanoma, 3.61 µM with SK-OV-3 ovarian, 0.671 µM in the assay on RXF 393 renal and 0.674 µM in the assay on U251 CNS. For the same molecule, the TGI in the assay on K-562 leukemia worked out at 12.3 µM; in the assay with HOP-92 NSCLC it was 7.11 µM; in the assay with NCI-H226 lung, 14.9 µM; with HOP-62 NSCLC, 35.6 µM; with SF-295 CNS it was 3.92 µM; in the assay with SW-620 colon it was 11.8 µM. The TGI in the assay with LOX IMVI melanoma came out at 3.2 µM; with SK-OV-3 ovarian it was 80.2 µM; in the assay on RXF 393 renal it was 4.22 µM; with U251 CNS, 7.15 µM.

In the case of `c1ccc2c(c1)-c1ccccc1C2N1CC2CCC(CC2)C1`, the TGI with K-562 leukemia is 36.6 µM; in the assay on HOP-92 NSCLC, 48.5 µM; in the assay on NCI-H226 lung, 41.5 µM; in the assay with HOP-62 NSCLC, 62 µM; in the assay with SF-295 CNS, 38.1 µM; in the assay on SW-620 colon, 49.1 µM. Further, the TGI is 40.5 µM in the assay on LOX IMVI melanoma, over 100 µM in the assay on SK-OV-3 ovarian, 33.7 µM in the assay on RXF 393 renal and 30.9 µM with U251 CNS.

As for `CC(=O)Nc1c(C)ccc2c1C(=O)c1ccccc1C2=O`, the TGI in the assay with K-562 leukemia, in the assay on HOP-92 NSCLC, in the assay on NCI-H226 lung, with HOP-62 NSCLC, with SF-295 CNS and in the assay on SW-620 colon was over 100 µM throughout. The TGI in the assay with LOX IMVI melanoma, with SK-OV-3 ovarian, in the assay with RXF 393 renal and with U251 CNS was over 100 µM throughout.

Turning to `Cc1nc2cc(N)c(F)cc2[nH]1`, the TGI in the assay with K-562 leukemia, in the assay with HOP-92 NSCLC, with NCI-H226 lung, in the assay on HOP-62 NSCLC, in the assay on SF-295 CNS and in the assay with SW-620 colon was over 100 µM in each case. For the same molecule, the TGI in the assay with LOX IMVI melanoma, with SK-OV-3 ovarian, with RXF 393 renal and in the assay on U251 CNS was over 100 µM throughout.

For the molecule `O=C([O][Hg][CH2]C1COCC([CH2][Hg][O]C(=O)c2ccccc2)O1)c1ccccc1` (configuration not stated), the GI50 in the assay on K-562 leukemia was 2.61 µM; in the assay with HOP-92 NSCLC, 2.25 µM; in the assay on NCI-H226 lung, 20.8 µM; in the assay with HOP-62 NSCLC, 15.3 µM; in the assay on SF-295 CNS it was 17.3 µM; in the assay with SW-620 colon it was 1.54 µM. For the same molecule, the GI50 in the assay with LOX IMVI melanoma was 1.73 µM; in the assay with SK-OV-3 ovarian it was 21.8 µM; with RXF 393 renal, 1.99 µM; with U251 CNS, 0.622 µM. For the same molecule, the TGI with K-562 leukemia stood at 11.9 µM; in the assay on HOP-92 NSCLC, 4.23 µM; in the assay on NCI-H226 lung, 41.9 µM; in the assay with HOP-62 NSCLC, 31.1 µM; in the assay on SF-295 CNS, 35.7 µM; with SW-620 colon, 3.32 µM. Further, the TGI in the assay on LOX IMVI melanoma is 4.2 µM; in the assay with SK-OV-3 ovarian, 43 µM; in the assay on RXF 393 renal it was 3.56 µM; in the assay on U251 CNS it was 2.12 µM.

Take `Cc1cccc(C)c1NC(=O)CCc1nnc2s/c(=C\c3ccc(Cl)cc3)c(=O)n12`: the TGI in the assay on K-562 leukemia was over 100 µM; in the assay with HOP-92 NSCLC, over 100 µM; in the assay on NCI-H226 lung, over 100 µM; in the assay with HOP-62 NSCLC it was over 100 µM; in the assay on SF-295 CNS, over 100 µM; with SW-620 colon it was 40.2 µM. Further, the TGI in the assay with LOX IMVI melanoma, in the assay on SK-OV-3 ovarian, in the assay on RXF 393 renal and in the assay with U251 CNS was over 100 µM throughout.

Consider `O=[N+]([O-])c1ccc(N=Nc2c(O)ccc3ccccc23)cc1`, for which the TGI with K-562 leukemia is over 100 µM; in the assay on HOP-92 NSCLC, over 100 µM; with NCI-H226 lung it was over 100 µM; with HOP-62 NSCLC it was 37.4 µM and > 100 µM; in the assay on SF-295 CNS, over 100 µM; with SW-620 colon, over 100 µM. For the same molecule, the TGI is over 100 µM with LOX IMVI melanoma; over 100 µM with SK-OV-3 ovarian; over 100 µM with RXF 393 renal; 67 µM and > 100 µM with U251 CNS. For the same molecule, the GI50 in the assay on HOP-92 NSCLC was 32.5 µM and > 100 µM; with NCI-H226 lung, 35.4 µM and > 100 µM; in the assay on HOP-62 NSCLC, 14.5 µM and > 100 µM; in the assay with SF-295 CNS, 29.8 µM and > 100 µM; in the assay on SK-OV-3 ovarian, 20.2 µM and > 100 µM; in the assay with RXF 393 renal, 38 µM and > 100 µM. Also, in the assay with U251 CNS, the GI50 was 22.5 µM and > 100 µM.
